We go through 14 compounds from ChEMBL document CHEMBL1137896, “Synthesis and AMPA receptor antagonistic activity of a novel 7-imidazolyl-6-trifluoromethyl quinoxalinecarboxylic acid with a substituted phenyl group and improved its good physicochemical properties by introduced CF3 group” (Bioorg Med Chem Lett, 2004).

For series [1], the system named is Rattus norvegicus. Briefly: In vivo protective effect in focal ischemia rat model was determined after intravenous dosage at 2.5 mg/kg/h for 4 hr. Type of series: functional.
The nature of series [2]: Solubility at pH 7.4. The conditions noted are these: buffer. Type of series: physicochemical.
The target in series [3] is Glutamate receptor ionotropic, AMPA (Rattus norvegicus, UniProt P19490+P19491+P19492+P19493). In words: Displacement of [3H]AMPA (5 nM) from ionotropic glutamate receptor AMPA of rat cerebral cortex synaptic membrane preparation. It counts as tissue-based. In general terms: In a radioligand displacement assay an active substance lowers the binding of a labelled ligand.

The subject of series [4] is Rattus norvegicus. In words: In vivo protective effect in focal ischemia rat model was determined after intravenous dosage at 15 mg/kg/h for 4 hr. It counts as functional.
The test system of series [5] is Rattus norvegicus. Briefly: In vivo protective effect in focal ischemia rat model was determined after intravenous dosage at 30 mg/kg/h for 4 hr. It counts as functional.

SMILES strings stand for the structures. In brackets after ≈: the same amount, converted by molar mass.

Usually solubility stands for the dissolved amount per volume that the medium holds. A lower solubility goes with a poorly soluble substance. With `O=C(Nc1ccc(C(=O)O)cc1)OCc1cn(-c2cc3nc(C(=O)O)c(O)nc3cc2[N+](=O)[O-])cn1`, the Protection in the series on Rattus norvegicus [1] came to 3. In series [2], this compound gave a solubility of 4860 µg/mL (≈ 9.83 mM). What is called Ki is a dissociation constant, usually derived from enzyme kinetics or from competition with a known ligand. Low readings indicate tighter binding, high ones weaker binding. `O=C(O)c1nc2cc(-n3ccnc3)c(C(F)(F)F)cc2nc1O` yielded an inhibition constant (Ki) in series [3] of 86 nM.

On to `O=C(Nc1ccc(C(F)(F)F)cc1)OCc1cn(-c2cc3nc(C(=O)O)c(O)nc3cc2C(F)(F)F)cn1`, for which, in series [3], the affinity, expressed as Ki, was 29 nM. On the same count and under the same terms, in the case of `O=C(Nc1cc(Cl)cc(Cl)c1)OCc1cn(-c2cc3nc(C(=O)O)c(O)nc3cc2C(F)(F)F)cn1` it was 13 nM; in that of `Cc1ccc(NC(=O)OCc2cn(-c3cc4nc(C(=O)O)c(O)nc4cc3C(F)(F)F)cn2)cc1`, 20 nM. `O=C(Nc1ccc(Br)cc1)OCc1cn(-c2cc3nc(C(=O)O)c(O)nc3cc2C(F)(F)F)cn1` displayed a Ki in series [3] of 20 nM. For the compound `COc1ccc(NC(=O)OCc2cn(-c3cc4nc(C(=O)O)c(O)nc4cc3C(F)(F)F)cn2)cc1`, affinity in series [3] was put at a Ki of 30 nM. As for `O=C(Nc1ccc(C(=O)O)cc1)OCc1cn(-c2cc3nc(C(=O)O)c(O)nc3cc2C(F)(F)F)cn1`, the Protection with Rattus norvegicus [1] came out at 2.7. The solubility in series [2] is 8290 µg/mL (≈ 16 mM). Moreover, the affinity in series [3] corresponds to a Ki of 16 nM. Turning to `O=C(Nc1cccc(Br)c1)OCc1cn(-c2cc3nc(C(=O)O)c(O)nc3cc2C(F)(F)F)cn1`, the Ki in series [3] was determined as 5.2 nM.

The compound `O=C(Nc1ccccc1)OCc1cn(-c2cc3nc(C(=O)O)c(O)nc3cc2C(F)(F)F)cn1` came in with a Ki in series [3] of 23 nM.

As to `O=C(NCc1ccccc1)OCc1cn(-c2cc3nc(C(=O)O)c(O)nc3cc2C(F)(F)F)cn1`, the Ki in series [3] came out at 190 nM. In series [3], `O=C(Nc1cccc(C(=O)O)c1)OCc1cn(-c2cc3nc(C(=O)O)c(=O)[nH]c3cc2C(F)(F)F)cn1` displayed a Ki of 35 nM. With `O=c1[nH]c2cc(-n3ccnc3)c([N+](=O)[O-])cc2[nH]c1=O` [YM-90K], in the series on Rattus norvegicus [4], the Protection was found to be 2.8. The same compound registered a solubility in series [2] of 1000 µg/mL (≈ 3.66 mM). `O=C(O)Cn1c(=O)c(=O)[nH]c2cc([N+](=O)[O-])c(-n3ccnc3)cc21` [ZONAMPANEL] registered a Protection in the series with Rattus norvegicus [5] of 0.5. Besides, the solubility in series [2] is more than 5000 µg/mL.
